According to PubChem BioAssay AID248 (DTP/NCI, 2004):
Values joined by “and” are separate entries in the source; they are usually repeats but may differ in a detail not shown here. Equal entries are not always repeated. Toxic doses and inconclusive results are not listed. Rule as the data show it: active = T/C of 150% or more; inactive = T/C below 125%.

Tested on: L1210 leukemia ip in BDF1 mice, survival T/C
Experiment: NCI In Vivo Anticancer Drug Screen. Data for tumor model L1210 Leukemia (intraperitoneal) in B6D2F1 (BDF1) mice
Conditions: endpoint: mean survival time, higher = longer survival
Method in brief: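 Survival endpoint. Drug-treated group vs vehicle group, expressed as T divided by C. Tumor passaged by transplantation.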

[1] = dose: 100.0 mg/kg/injection, schedule: Q01DX009 (ip), vehicle: Klucel (hydroxypropylcellulose) (HPC)
[2] = dose: 100.0 mg/kg/injection, schedule: Q04DX003 (ip), vehicle: Klucel (hydroxypropylcellulose) (HPC)
[3] = dose: 200.0 mg/kg/injection, schedule: Q01DX009 (ip), vehicle: Klucel (hydroxypropylcellulose) (HPC)
[4] = dose: 200.0 mg/kg/injection, schedule: Q04DX003 (ip), vehicle: Klucel (hydroxypropylcellulose) (HPC)
[5] = dose: 100.0 mg/kg/injection, schedule: Q04DX003 (ip), vehicle: saline
[6] = dose: 200.0 mg/kg/injection, schedule: Q04DX003 (ip), vehicle: saline
[7] = dose: 400.0 mg/kg/injection, schedule: Q01DX009 (ip), vehicle: Klucel (hydroxypropylcellulose) (HPC)
[8] = dose: 100.0 mg/kg/injection, schedule: Q04DX003 (ip), vehicle: saline with Tween-80
[9] = dose: 200.0 mg/kg/injection, schedule: Q04DX003 (ip), vehicle: saline with Tween-80
[10] = dose: 400.0 mg/kg/injection, schedule: Q04DX003 (ip), vehicle: saline with Tween-80
[11] = dose: 400.0 mg/kg/injection, schedule: Q04DX003 (ip), vehicle: Klucel (hydroxypropylcellulose) (HPC)
[12] = dose: 25.0 mg/kg/injection, schedule: Q04DX002 (ip), vehicle: other

Measured: T/C

OC1(C#CC2(O)CCCCC2)CCCCC1
inactive: dose: 50.0 mg/kg/injection, schedule: Q01DX009 (ip), vehicle: Klucel (hydroxypropylcellulose) (HPC) 98 % of control | [1] 89 % of control | [2] 98 % of control | [3] 102 % of control | [4] 90 % of control

O=C(C[n+]1ccccc1Br)c1cccc([N+](=O)[O-])c1
inactive: dose: 75.0 mg/kg/injection, schedule: Q01DX001 (ip), vehicle: other 100 % of control | dose: 150.0 mg/kg/injection, schedule: Q01DX001 (ip), vehicle: other 108 % of control

Cc1ccc(N2CSC(=S)N(c3ccc(C)cc3)C2)cc1
inactive: [1] 101 % of control | [5] 94 % of control | [3] 96 % of control | [6] 89 % of control | [7] 95 % of control | dose: 400.0 mg/kg/injection, schedule: Q04DX003 (ip), vehicle: saline 88 % of control

C[N+](C)(C)CC1COCCO1 (stereo unspecified)
inactive: dose: 5.0 mg/kg/injection, schedule: Q01DX001 (ip), vehicle: saline 105 % of control

COc1ccc(OC)c(CCC(O)CCc2cc(OC)ccc2OC)c1
inactive: dose: 100.0 mg/kg/injection, schedule: Q01DX009 (ip), vehicle: saline with Tween-80 99 % of control | [8] 96 % of control | dose: 200.0 mg/kg/injection, schedule: Q01DX009 (ip), vehicle: saline with Tween-80 90 % of control | [9] 98 % of control | dose: 400.0 mg/kg/injection, schedule: Q01DX009 (ip), vehicle: saline with Tween-80 94 % of control | [10] 94 % of control

Cc1ccc(S(=O)(=O)N=N/C=C2/C=CC=CN2O)cc1
inactive: dose: 40.0 mg/kg/injection, schedule: Q01DX009 (ip), vehicle: saline 93 % of control | dose: 60.0 mg/kg/injection, schedule: Q01DX009 (ip), vehicle: saline 96 % of control | dose: 90.0 mg/kg/injection, schedule: Q01DX009 (ip), vehicle: saline 94 % of control | dose: 135.0 mg/kg/injection, schedule: Q01DX009 (ip), vehicle: saline 104 % of control | dose: 175.0 mg/kg/injection, schedule: Q01DX009 (ip), vehicle: saline with Tween-80 111 % of control

O=C([O-])C1CCCCC1[I+]c1ccccc1 (stereo unspecified)
inactive: [5] 100 % of control | [6] 98 % of control

c1ccc([C@H]2O[C@@H]2c2ccccc2)cc1
inactive: dose: 12.5 mg/kg/injection, schedule: Q01DX009 (ip), vehicle: saline with Tween-80 91 % of control | dose: 12.5 mg/kg/injection, schedule: Q04DX003 (ip), vehicle: saline with Tween-80 96 % of control | dose: 25.0 mg/kg/injection, schedule: Q01DX009 (ip), vehicle: saline with Tween-80 96 % of control | dose: 25.0 mg/kg/injection, schedule: Q04DX003 (ip), vehicle: saline with Tween-80 93 % of control | dose: 50.0 mg/kg/injection, schedule: Q01DX009 (ip), vehicle: saline with Tween-80 94 % of control | dose: 50.0 mg/kg/injection, schedule: Q04DX003 (ip), vehicle: saline with Tween-80 96 % of control | dose: 100.0 mg/kg/injection, schedule: Q01DX001 (ip), vehicle: Klucel (hydroxypropylcellulose) (HPC) 97 % of control | [2] 92 % of control | dose: 200.0 mg/kg/injection, schedule: Q01DX001 (ip), vehicle: Klucel (hydroxypropylcellulose) (HPC) 101 % of control | [4] 101 % of control | dose: 400.0 mg/kg/injection, schedule: Q01DX001 (ip), vehicle: Klucel (hydroxypropylcellulose) (HPC) 103 % of control | [11] 97 % of control

COc1cc(/C=N/N=C/c2cc(OC)cc(OC)c2)cc(OC)c1
inactive: dose: 100.0 mg/kg/injection, schedule: Q04DX002 (ip), vehicle: Klucel (hydroxypropylcellulose) (HPC) 98 % of control | dose: 200.0 mg/kg/injection, schedule: Q04DX002 (ip), vehicle: Klucel (hydroxypropylcellulose) (HPC) 100 % of control | dose: 400.0 mg/kg/injection, schedule: Q04DX002 (ip), vehicle: Klucel (hydroxypropylcellulose) (HPC) 107 % of control

O=C(Nc1ccccc1)Nc1ccc(Cl)cc1Cl
inactive: dose: 12.5 mg/kg/injection, schedule: Q04DX002 (ip), vehicle: other 107 % of control | [12] 93 % of control | dose: 50.0 mg/kg/injection, schedule: Q04DX002 (ip), vehicle: other 90 % of control | dose: 100.0 mg/kg/injection, schedule: Q04DX002 (ip), vehicle: other 96 % of control

C(=N\C(/N=C/c1ccccc1)c1ccccc1)/c1ccccc1
inactive: [1] 96 % of control | [2] 92 % of control | [3] 94 % of control | [4] 94 % of control | [7] 92 % of control | [11] 92 % of control

Nc1nc2c(ncn2-c2ccc(OCCCc3ccccc3)cc2)c(=O)[nH]1
inactive: dose: 1.56 mg/kg/injection, schedule: Q01DX001 (ip), vehicle: saline with Tween-80 97 % of control | dose: 3.13 mg/kg/injection, schedule: Q01DX001 (ip), vehicle: saline with Tween-80 92 % of control | dose: 6.25 mg/kg/injection, schedule: Q01DX001 (ip), vehicle: saline with Tween-80 94 % of control and 87 % of control | dose: 25.0 mg/kg/injection, schedule: Q01DX001 (ip), vehicle: saline with Tween-80 92 % of control and 91 % of control

CC(C)C(=O)OCC(=O)c1ccc(-c2ccccc2)cc1
inactive: dose: 100.0 mg/kg/injection, schedule: Q01DX001 (ip), vehicle: saline 100 % of control | dose: 200.0 mg/kg/injection, schedule: Q01DX001 (ip), vehicle: saline 94 % of control | dose: 400.0 mg/kg/injection, schedule: Q01DX001 (ip), vehicle: saline 111 % of control

CCC(C(=O)O)N1C(=O)C2C3C=CC(C3)C2C1=O (stereo unspecified)
inactive: [8] 94 % of control and 96 % of control | [9] 96 % of control and 105 % of control | [10] 105 % of control

COc1ccc(/C=C/[N+](=O)[O-])cc1
inactive: dose: 6.25 mg/kg/injection, schedule: Q04DX002 (ip), vehicle: saline with Tween-80 97 % of control | dose: 12.5 mg/kg/injection, schedule: Q04DX002 (ip), vehicle: saline with Tween-80 93 % of control | [12] 96 % of control | dose: 25.0 mg/kg/injection, schedule: Q04DX002 (ip), vehicle: saline with Tween-80 89 % of control | dose: 25.0 mg/kg/injection, schedule: Q04DX003 (ip), vehicle: Klucel (hydroxypropylcellulose) (HPC) 100 % of control | dose: 50.0 mg/kg/injection, schedule: Q04DX003 (ip), vehicle: Klucel (hydroxypropylcellulose) (HPC) 103 % of control | [2] 95 % of control

ICC1CCC(CI)CC1 (stereo unspecified)
inactive: dose: 100.0 mg/kg/injection, schedule: Q01DX001 (ip), vehicle: carboxymethylcellulose (CMC) 102 % of control | dose: 200.0 mg/kg/injection, schedule: Q01DX001 (ip), vehicle: carboxymethylcellulose (CMC) 102 % of control | dose: 400.0 mg/kg/injection, schedule: Q01DX001 (ip), vehicle: carboxymethylcellulose (CMC) 102 % of control

C=CC[N+](C)(C)C
inactive: dose: 75.0 mg/kg/injection, schedule: Q01DX001 (ip), vehicle: saline 101 % of control

O=C(COc1ccc(Cl)cc1)Nc1ccccc1Br
inactive: dose: 100.0 mg/kg/injection, schedule: Q04DX002 (ip), vehicle: saline + alcohol 96 % of control | dose: 200.0 mg/kg/injection, schedule: Q04DX002 (ip), vehicle: saline + alcohol 107 % of control | dose: 400.0 mg/kg/injection, schedule: Q04DX002 (ip), vehicle: saline + alcohol 103 % of control
